According to patent publication US20250236613A1, “SARM1 MODULATORS, PREPARATIONS, AND USES THEREOF” (SIRONAX LTD., priority 2021, published 2025):

Molecular target: SARM1 (50-724) (Homo sapiens (Human), UniProt Q6SZW1)
Assay: SARM1 (50-724) enzymatic assay
Assay type: biochemical
Settings: SARM1 inhibitory activity; 2 nM SARM1 (50-724), 200 μM NMN activator, 100 μM NAD+ substrate, 1 h, LC-MS/MS
Procedure: The enzymatic assay was performed in a 384-well plate using Dulbecco's PBS buffer as the reaction buffer. Purified SARM1 (50-724) with a final concentration of 2 nM was pre-incubated with the test compound at 1% DMSO final assay concentration for 15 min at room temperature. The reaction was initiated by adding the mixture of 200 μM NMN as activator and 100 μM NAD^+ as substrate. After 1 h of incubation at room temperature, the reaction was terminated with 10 times volume of 70% acetonitrile, then centrifuged at 3800 rpm for 10 min. The samples were analyzed using LC-MS/MS after diluted to the proper concentration by 10 mM ammonium acetate (pH 9.75).

Chain of SARM1 (50-724) (Q6SZW1 50-724): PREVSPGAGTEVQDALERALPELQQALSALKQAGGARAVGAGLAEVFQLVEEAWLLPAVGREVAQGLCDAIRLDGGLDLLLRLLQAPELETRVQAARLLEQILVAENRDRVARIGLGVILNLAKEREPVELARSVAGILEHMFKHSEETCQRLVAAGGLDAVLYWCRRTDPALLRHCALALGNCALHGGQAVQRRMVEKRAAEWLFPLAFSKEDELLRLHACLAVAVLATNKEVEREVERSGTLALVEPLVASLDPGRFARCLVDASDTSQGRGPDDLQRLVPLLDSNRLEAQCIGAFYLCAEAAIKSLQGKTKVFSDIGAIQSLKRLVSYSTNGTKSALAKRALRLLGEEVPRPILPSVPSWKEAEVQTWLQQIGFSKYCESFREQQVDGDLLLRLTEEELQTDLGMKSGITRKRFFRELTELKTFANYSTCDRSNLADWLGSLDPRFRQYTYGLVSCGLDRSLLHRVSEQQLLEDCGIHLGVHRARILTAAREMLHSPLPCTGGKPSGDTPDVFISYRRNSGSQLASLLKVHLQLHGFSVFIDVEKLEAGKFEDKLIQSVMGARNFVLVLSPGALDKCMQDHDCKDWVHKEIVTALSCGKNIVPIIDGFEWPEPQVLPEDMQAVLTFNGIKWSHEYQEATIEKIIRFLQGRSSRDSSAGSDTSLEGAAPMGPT

For Cc1ccncc1-c1ccc2[nH]nc(N)c2c1 [Compound 65, 5-(4-methylpyridin-3-yl)-1H-indazol-3-amine], the IC50 was > 30 µM.

Molecule Cc1cc(Cl)ncc1-c1ccc2[nH]c(=O)oc2c1 [Compound 66, 6-(6-chloro-4-methylpyridin-3-yl)benzo[d]oxazol-2(3H)-one] has an IC50 of 15 to 30 µM.

Cc1cc(C)c(-c2ccc3[nH]c(=O)oc3c2)cn1 [Compound 67, 6-(4,6-dimethylpyridin-3-yl)benzo[d]oxazol-2(3H)-one] showed an IC50 of 15 to 30 µM.

For Cc1ccncc1-c1ccc2[nH]nc(F)c2c1 [Compound 68, 3-fluoro-5-(4-methylpyridin-3-yl)-1H-indazole], the IC50 was < 5 µM.

For Cc1ccncc1-c1ccc(NC(=N)N)cc1 [Compound 69, 1-(4-(4-methylpyridin-3-yl)phenyl)guanidine], the IC50 was 15 to 30 µM.

In the case of Cc1ccncc1-c1ccc2c(c1)N(C)S(=O)(=O)N2 [Compound 70, 1-methyl-6-(4-methylpyridin-3-yl)-1,3-dihydrobenzo[c][1,2,5]thiadiazole 2,2-dioxide], the IC50 is reported as 15 to 30 µM.

In the case of Cc1ccncc1-c1ccc2nc(N)ncc2c1 [Compound 71, 6-(4-methylpyridin-3-yl)quinazolin-2-amine], the IC50 is reported as 15 to 30 µM.

Molecule Cc1ccncc1-c1ccc2c(c1)NC(=O)NC2 [Compound 72, 7-(4-methylpyridin-3-yl)-3,4-dihydroquinazolin-2(1H)-one] has an IC50 of 5 to 15 µM.

In the case of CC(=O)Nc1nc2cc(-c3cnccc3C)ccc2[nH]1 [Compound 73, N-(5-(4-methylpyridin-3-yl)-1H-benzo[d]imidazol-2-yl)acetamide], the IC50 is reported as < 5 µM.

Work on Cc1ccncc1-c1ccc2[nH]ncc2c1F [Compound 74, 4-fluoro-5-(4-methylpyridin-3-yl)-1H-indazole] yielded an IC50 of 15 to 30 µM.

With Cc1ccncc1-c1ccc2[nH]c(=S)oc2c1 [Compound 75, 6-(4-methylpyridin-3-yl)benzo[d]oxazole-2(3H)-thione] the IC50 was < 5 µM.

In the case of Cc1ccncc1-c1ccc2c(c1)C(=O)C(=O)N2 [Compound 76, 5-(4-methylpyridin-3-yl)indoline-2,3-dione], the IC50 is reported as < 5 µM.

In the case of Nc1cncc(-c2ccc3[nH]c(=O)oc3c2)c1 [Compound 77, 6-(5-aminopyridin-3-yl)benzo[d]oxazol-2(3H)-one], the IC50 is reported as 5 to 15 µM.

In the case of Cc1ncncc1-c1ccc2[nH]c(=O)oc2c1 [Compound 78, 6-(4-methylpyrimidin-5-yl)benzo[d]oxazol-2(3H)-one], the IC50 is reported as > 30 µM.

Cc1ccncc1-c1ccc2c(c1)CNC(=N)N2 [Compound 79, 6-(4-methylpyridin-3-yl)-3,4-dihydroquinazolin-2(1H)-imine] was tested, and the IC50 was < 5 µM.

Cc1ccncc1-c1ccc2c(c1)COCC(=O)N2 [Compound 80, 7-(4-methylpyridin-3-yl)-1,5-dihydrobenzo[e][1,4]oxazepin-2(3H)-one] was tested, and the IC50 was < 5 µM.

In the case of Cc1ccncc1-c1ccc2c(c1)C(F)(F)C(=O)N2 [Compound 81, 3,3-difluoro-5-(4-methylpyridin-3-yl)indolin-2-one], the IC50 is reported as < 5 µM.

Molecule Cc1c[nH]c(=O)cc1-c1ccc2[nH]c(=O)oc2c1 [Compound 82, 6-(5-methyl-2-oxo-1,2-dihydropyridin-4-yl)benzo[d]oxazol-2(3H)-one] has an IC50 of 15 to 30 µM.

For CCc1ccncc1-c1ccc2[nH]c(=O)oc2c1 [Compound 83, 6-(4-ethylpyridin-3-yl)benzo[d]oxazol-2(3H)-one], the IC50 was < 5 µM.

With O=c1[nH]c2ccc(-c3cccnc3)cc2o1 [Compound 84, 6-(pyridin-3-yl)benzo[d]oxazol-2(3H)-one] the IC50 was < 5 µM.

Work on Cc1ccncc1-c1ccc2c(c1)OCCC(=O)N2 [Compound 85, 8-(4-methylpyridin-3-yl)-2,3-dihydrobenzo[b][1,4]oxazepin-4(5H)-one] yielded an IC50 of 5 to 15 µM.

With Cc1ccncc1-c1ccc2[nH]c(=O)sc2c1 [Compound 86, 6-(4-methylpyridin-3-yl)benzo[d]thiazol-2(3H)-one] the IC50 was < 5 µM.

For O=c1[nH]c2ccc(-c3cncc(Nc4ccccc4)c3)cc2o1 [Compound 87, 6-(5-(phenylamino)pyridin-3-yl)benzo[d]oxazol-2(3H)-one], the IC50 was < 5 µM.

Cc1ccncc1-c1ccc2[nH]c(C#N)cc2c1 [Compound 88, 5-(4-methylpyridin-3-yl)-1H-indole-2-carbonitrile] was tested, and the IC50 was < 5 µM.

Cc1ccncc1-c1ccc2[nH]c(C#N)nc2c1 [Compound 89, 5-(4-methylpyridin-3-yl)-1H-benzo[d]imidazole-2-carbonitrile] was tested, and the IC50 was < 5 µM.

For COc1ccncc1-c1ccc2[nH]c(=O)oc2c1 [Compound 90, 6-(4-methoxypyridin-3-yl)benzo[d]oxazol-2(3H)-one], the IC50 was < 5 µM.

In the case of Cc1ccncc1-c1ccc2[nH]c(=O)oc2c1F [Compound 91, 7-fluoro-6-(4-methylpyridin-3-yl)benzo[d]oxazol-2(3H)-one], the IC50 is reported as 15 to 30 µM.

For Cc1ccncc1-c1ccc2[nH]nc(C#N)c2c1 [Compound 92, 5-(4-methylpyridin-3-yl)-1H-indazole 3-carbonitrile], the IC50 was < 5 µM.

Work on Cc1ccncc1-c1ccc2[nH]nc(C(F)(F)F)c2c1 [Compound 93, 5-(4-methylpyridin-3-yl)-3-(trifluoromethyl)-1H-indazole] yielded an IC50 of 5 to 15 µM.

In the case of Cc1ccnnc1-c1ccc2[nH]c(=O)oc2c1 [Compound 94, 6-(4-methylpyridazin-3-yl)benzo[d]oxazol-2(3H)-one], the IC50 is reported as < 5 µM.

In the case of O=c1[nH]c2ccc(-c3cncc(Nc4cccc(O)c4)c3)cc2o1 [Compound 95, 6-(5-((3-hydroxyphenyl)amino)pyridin-3-yl)benzo[d]oxazol-2(3H)-one], the IC50 is reported as < 5 µM.

O=c1[nH]c2ccc(-c3cncc(Nc4cccc(Cl)c4)c3)cc2o1 [Compound 96, 6-(5-((3-chlorophenyl)amino)pyridin-3-yl)benzo[d]oxazol-2(3H)-one] was tested, and the IC50 was < 5 µM.

For COc1cccc(Nc2cncc(-c3ccc4[nH]c(=O)oc4c3)c2)c1 [Compound 97, 6-(5-((3-methoxyphenyl)amino)pyridin-3-yl)benzo[d]oxazol-2(3H)-one], the IC50 was < 5 µM.

Cc1ccc(Nc2cncc(-c3ccc4[nH]c(=O)oc4c3)c2)cc1 [Compound 98, 6-(5-(p-tolylamino)pyridin-3-yl)benzo[d]oxazol-2(3H)-one] was tested, and the IC50 was < 5 µM.

For O=c1[nH]c2ccc(-c3cncc(Nc4ccc5c(c4)NCCC5)c3)cc2o1 [Compound 99, 6-(5-((1,2,3,4-tetrahydroquinolin-7-yl)amino)pyridin-3-yl)benzo[d]oxazol-2(3)-one], the IC50 was < 5 µM.

With O=c1[nH]c2ccc(-c3cncc(Nc4ccc(F)cc4)c3)cc2o1 [Compound 100, 6-(5-((4-fluorophenyl)amino)pyridin-3-yl)benzo[d]oxazol-2(3H)-one] the IC50 was < 5 µM.

O=c1[nH]c2ccc(-c3cncc(Nc4cccc(F)c4)c3)cc2o1 [Compound 101, 6-(5-((3-fluorophenyl)amino)pyridin-3-yl)benzo[d]oxazol-2(3H)-one] was tested, and the IC50 was < 5 µM.

With O=c1[nH]c2ccc(-c3cncc(Nc4ccccc4F)c3)cc2o1 [Compound 102, 6-(5-((2-fluorophenyl)amino)pyridin-3-yl)benzo[d]oxazol-2(3H)-one] the IC50 was < 5 µM.

With CC(C)c1cccc(Nc2cncc(-c3ccc4[nH]c(=O)oc4c3)c2)c1 [Compound 103, 6-(5-((3-isopropylphenyl)amino)pyridin-3-yl)benzo[d]oxazol-2(3H)-one] the IC50 was < 5 µM.

In the case of O=c1[nH]c2ccc(-c3cncc(Nc4ccc(Cl)cc4)c3)cc2o1 [Compound 104, 6-(5-((4-chlorophenyl)amino)pyridin-3-yl)benzo[d]oxazol-2(3H)-one], the IC50 is reported as < 5 µM.

In the case of O=c1[nH]c2ccc(-c3cncc(Nc4cccnc4)c3)cc2o1 [Compound 105, 6-(5-(pyridin-3-ylamino)pyridin-3-yl)benzo[d]oxazol-2(3H)-one], the IC50 is reported as < 5 µM.

With CC(C)(C)OC(=O)N1CCCc2ccc(Nc3cncc(-c4ccc5[nH]c(=O)oc5c4)c3)cc21 [Compound 106, tert-butyl 7-((5-(2-oxo-2,3-dihydrobenzo[d]oxazol-6-yl)pyridin-3-yl)amino)-3,4-dihydroquinoline-1(2H)-carboxylate] the IC50 was < 5 µM.

N#Cc1cccc(Nc2cncc(-c3ccc4[nH]c(=O)oc4c3)c2)c1 [Compound 107, 3-((5-(2-oxo-2,3-dihydrobenzo[d]oxazol-6-yl)pyridin-3-yl)amino)benzonitrile] was tested, and the IC50 was < 5 µM.

Cn1cc(Nc2cncc(-c3ccc4[nH]c(=O)oc4c3)c2)cn1 [Compound 108, 6-(5-((1-methyl-1H-pyrazol-4-yl)amino)pyridin-3-yl)benzo[d]oxazol-2(3H)-one] was tested, and the IC50 was < 5 µM.

For CN(c1ccccc1)c1cncc(-c2ccc3[nH]c(=O)oc3c2)c1 [Compound 109, 6-(5-(methyl(phenyl)amino)pyridin-3-yl)benzo[d]oxazol-2(3H)-one], the IC50 was < 5 µM.

For CNc1cncc(-c2ccc3[nH]c(=O)oc3c2)c1 [Compound 110, 6-(5-(methylamino)pyridin-3-yl)benzo[d]oxazol-2(3H)-one], the IC50 was < 5 µM.

In the case of O=c1[nH]c2ccc(-c3cncc(Nc4ccncc4)c3)cc2o1 [Compound 111, 6-(5-(pyridin-4-ylamino)pyridin-3-yl)benzo[d]oxazol-2(3H)-one], the IC50 is reported as < 5 µM.

For O=c1[nH]c2ccc(-c3cc(Nc4ccccc4)cnn3)cc2o1 [Compound 112, 6-(5-(phenylamino)pyridazin-3-yl)benzo[d]oxazol-2(3H)-one], the IC50 was < 5 µM.

In the case of O=c1[nH]c2ccc(-c3cncc(Nc4ccccn4)c3)cc2o1 [Compound 113, 6-(5-(pyridin-2-ylamino)pyridin-3-yl)benzo[d]oxazol-2(3H)-one], the IC50 is reported as < 5 µM.

O=c1[nH]c2ccc(-c3cncc(Nc4cncnc4)c3)cc2o1 [Compound 114, 6-(5-(pyrimidin-5-ylamino)pyridin-3-yl)benzo[d]oxazol-2(3H)-one] was tested, and the IC50 was < 5 µM.
